Measurements as given in ChEMBL document CHEMBL1131078, “Small molecular probes for G-protein-coupled C5a receptors: conformationally constrained antagonists derived from the C terminus of the human plasma protein C5a” (J Med Chem, 1998).
The source made the active and inactive calls. The calls are words filed in the database; no cut-off is given here. Where a SMILES comes first, the peptide text is derived from it.

Key:
Homo sapiens = species: Homo sapiens; assay: Agonist activity at dose range 0.1 nM to 1 mM in human PMNs; No agonistic activity; format: functional
[1] = molecular target: T1, C5a anaphylatoxin chemotactic receptor 1 (Homo sapiens, UniProt P21730); assay: 50% reduction in binding of [125I]C5a to human polymorphonuclear cells (PMNs); format: cell-based, PMN
T1 sequence (P21730 whole entry): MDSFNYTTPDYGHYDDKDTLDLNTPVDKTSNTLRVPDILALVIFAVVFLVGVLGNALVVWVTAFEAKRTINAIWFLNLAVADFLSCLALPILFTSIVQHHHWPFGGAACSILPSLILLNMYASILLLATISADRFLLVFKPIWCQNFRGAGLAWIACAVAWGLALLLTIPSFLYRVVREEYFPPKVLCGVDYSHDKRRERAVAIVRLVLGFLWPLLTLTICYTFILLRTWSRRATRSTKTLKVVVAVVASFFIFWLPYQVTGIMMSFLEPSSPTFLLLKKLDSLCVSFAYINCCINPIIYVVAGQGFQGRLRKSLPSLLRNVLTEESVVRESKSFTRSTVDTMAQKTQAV

[2] = molecular target: T1, C5a anaphylatoxin chemotactic receptor 1; assay: 50% reduction in myeloperoxidase secretion from human PMNs mediated by 100 nM C5a

| Compound | Agonistic activity (Homo sapiens) | other results |
| --- | --- | --- |
| CN[C@@H](Cc1ccccc1)C(=O)N[C@@H](CCCCN)C(=O)N1CCC[C@H]1C(=O)N[C@@H](CC1CCCCC1)C(=O)N[C@@H](Cc1c[nH]c2ccccc12)C(=O)N[C@@H](CCCN=C(N)N)C(=O)O | inactive | – |
| CC[C@H](C)[C@H](N)C(=O)N[C@@H](CO)C(=O)N[C@@H](Cc1cnc[nH]1)C(=O)N[C@@H](CCCCN)C(=O)N[C@@H](CC(=O)O)C(=O)N[C@@H](CCSC)C(=O)N[C@@H](CCC(N)=O)C(=O)N[C@@H](CC(C)C)C(=O)NCC(=O)N[C@@H](CCCNC(=N)N)C(=O)O (H-ISHKDMQLGR-OH) | – | IC50 [1]: > 1 mM |
| CC(=O)N[C@@H](Cc1ccccc1)C(=O)N[C@H]1CCCNC(=O)[C@@H](CCCN=C(N)N)NC(=O)[C@H](Cc2c[nH]c3ccccc23)NC(=O)[C@@H](CC2CCCCC2)NC(=O)[C@@H]2CCCN2C1=O | inactive | – |
| CN[C@@H](Cc1ccccc1)C(=O)N[C@@H](CCCCN)C(=O)N1CCC[C@H]1C(=O)N[C@H](CC1CCCCC1)C(=O)N[C@@H](Cc1c[nH]c2ccccc12)C(=O)N[C@H](CCCN=C(N)N)C(N)=O | inactive | – |
| CC(=O)N[C@@H](Cc1ccccc1)C(=O)N[C@H]1CCCCNC(=O)[C@H](CCCN=C(N)N)NC(=O)[C@H](Cc2c[nH]c3ccccc23)NC(=O)[C@@H](CC2CCCCC2)NC(=O)[C@@H]2CCCN2C1=O | inactive | – |
| CN[C@@H](Cc1ccccc1)C(=O)N[C@@H](CCCCN)C(=O)N1CCC[C@H]1C(=O)N[C@@H](CC(C)C)C(=O)N[C@@H](Cc1c[nH]c2ccccc12)C(=O)N[C@@H](CCCN=C(N)N)C(=O)O (HELM PEPTIDE1{[meF].K.P.L.W.R}$$$$V2.0) | – | IC50 [2]: > 1 mM |
| CN[C@@H](Cc1ccccc1)C(=O)N[C@@H](CCCCN)C(=O)N1CCC[C@H]1C(=O)N[C@H](CC1CCCCC1)C(=O)N[C@@H](Cc1c[nH]c2ccccc12)C(=O)N[C@@H](CCCN=C(N)N)C(=O)O | inactive | – |
